From ChEMBL document CHEMBL5120939, “Novel Isoindolinone-Based Analogs of the Natural Cyclic Peptide Fenestin A: Synthesis and Antitumor Activity” (ACS Med Chem Lett, 2022) come the findings set out here.

Data set [1] deals with HeLa. Put plainly: cells. The following applies: Homo sapiens, 48 h.
Description: Antitumor activity against human HeLa cells assessed as inhibition of cell growth incubated for 48 hrs by MTT assay
Data set [2] in a line: Cytotoxicity against mouse L929 cells assessed as cell growth inhibition incubated for 48 hrs by MTT assay. The data set is classed as toxicity, cell-based.
Data set [3] concerns HepG2. Put plainly: Antitumor activity against human HepG2 cells assessed as inhibition of cell growth incubated for 48 hrs by MTT assay. Conditions: HepG2, 48 h. The data set is classed as functional, cell-based. In general terms: Tetrazolium dyes change colour on reduction, which living cells bring about.
Data set [4] deals with HeLa. The data set is described as follows: Effect on cell morphology in human HeLa cells assessed as appearance of round cells at 26.1 uM incubated for 12 to 24 hrs by scanning electron microscopic analysis. The data set is classed as functional, cell-based. Conditions: time 12-24 hrs.
Data set [5] relates to HeLa. The data set is described as follows: Effect on cell morphology in human HeLa cells assessed as decrease in cell contact at 26.1 uM incubated for 48 hrs by fluorescent inverted microscopic analysis. The data set is classed as functional, cell-based.
The subject of data set [6] is HeLa. Put plainly: Induction of cell cycle arrest in human HeLa cells assessed as accumulation at G2/M phase at 12.3 uM by RNAse A/PI staining based flow cytometric analysis. The data set is classed as functional. Conditions: time 12-48 hrs, TDE = time-dependent effect. Background: A flow cytometer gives signals particle by particle.
The test system of data set [7] is HeLa. The data set is described as follows: Upregulation of cytochrome C expression in human HeLa cell cytosol at 6.2 to 24.6 uM incubated for 48 hrs by Western blotting analysis. Conditions: dose 6.2-24.6 µM. The data set is classed as functional, subcellular. On the technique in general: In western blotting, separated proteins are transferred to a membrane and probed.

Data set [8] relates to HepG2. The data set is described as follows: Effect on cell morphology in human HepG2 cells assessed as cell shrinkage at 26.1 uM incubated for 48 hrs by fluorescent inverted microscopic analysis. The data set is classed as functional, cell-based.
The test system of data set [9] is HeLa. The data set is described as follows: Upregulation of p53 protein expression in human HeLa cells at 6.2 to 24.6 uM incubated for 48 hrs by Western blotting analysis. The data set is classed as functional, cell-based. The following applies: dose 6.2-24.6 µM.
The test system of data set [10] is HeLa. Put plainly: Antitumor activity against human HeLa cells assessed as inhibition of lactate dehydrogenase activity at 37.5 to 200 uM incubated for 48 hrs by Lactate dehydrogenase activity assay. The data set is classed as functional, cell-based. Conditions: dose 37.5-200 µM.
Data set [11] relates to HeLa. Put plainly: Induction of mitochondrial membrane potential loss in human HeLa cells assessed as decrease in fluorescence intensity at 6.2 to 24.6 uM incubated for 12 to 48 hrs by Rhodamine 123 staining based flow cytometric analysis. The data set is classed as functional, cell-based. The following applies: dose 6.2-24.6 µM, time 12-48 hrs.
Data set [12] relates to HeLa. The data set is described as follows: Induction of mitochondrial membrane potential loss in human HeLa cells assessed as decrease in fluorescence intensity […] at 12.3 uM by Rhodamine 123 staining based flow cytometric analysis. The data set is classed as functional, cell-based. Conditions: time 12-48 hrs, TDE = time-dependent effect.
The test system of data set [13] is HeLa. The data set is described as follows: Effect on cell morphology in human HeLa cells assessed as cell shrinkage at 26.1 uM incubated for 48 hrs by fluorescent inverted microscopic analysis. The data set is classed as functional, cell-based.
The test system of data set [14] is HeLa. Put plainly: Effect on cell morphology in human HeLa cells assessed as complete disruption at 26.1 uM incubated for 48 hrs by scanning electron microscopic analysis. The data set is classed as functional, cell-based.
In data set [15] the test system is HepG2. Put plainly: Effect on cell morphology in human HepG2 cells assessed as decrease in cell contact at 26.1 uM incubated for 48 hrs by fluorescent inverted microscopic analysis. The data set is classed as functional, cell-based.
For data set [16], the system named is HeLa. The data set is described as follows: Effect on intracellular calcium ion concentration in human HeLa assessed as increase in fluorescence intensity at 12.3 uM by Fluo-3 AM staining based flow cytometric analysis. The data set is classed as functional, cell-based.
The test system of data set [17] is HeLa. Put plainly: Effect on cell morphology in human HeLa cells assessed as disappearance of finger like protrusions at 26.1 uM incubated for 12 to 24 hrs by scanning electron microscopic analysis. The data set is classed as functional, cell-based. The following applies: time 12-24 hrs.
For data set [18], the system named is HeLa. The data set is described as follows: Downregulation of MDM2 protein expression in human HeLa cells at 6.2 to 24.6 uM incubated for 48 hrs by Western blotting analysis. The following applies: dose 6.2-24.6 µM. The data set is classed as functional, cell-based.
The subject of data set [19] is HeLa. Put plainly: Antitumor activity against human HeLa cells assessed as inhibition of cell growth by MTT assay. The data set is classed as functional, cell-based.

Each structure is given as a SMILES string. Calls of active or inactive are those of the source. No cut-off for these calls is given here. Numbered stars: 1 amine (or outer) side, 2 acyl side, 3 side chain; on linkers, the order of the positions; unused ones are H or OH. Square brackets hold non-standard residues; d marks the D form. Peptide text beside a SMILES is read from it. X1 = O=C1c2ccccc2[C@@](O)(CN(Cc2ccccc2)[*:1])N1CC(=O)[*:2]; X2 = O=C1c2ccccc2[C@](O)(CN(Cc2ccccc2)[*:1])N1CC(=O)[*:2]; Thz = O=C(O)[C@@H]1CSCN1

For `CC[C@H](C)[C@@H]1NC(=O)[C@H](CC(C)C)NC(=O)CN2C(=O)c3ccccc3[C@@]2(O)CN(Cc2ccccc2)C(=O)[C@@H]2CCCN2C(=O)[C@@H]2CCCN2C1=O` (cyclo(IPP[X1]L)), the results for the IC50 with HeLa [1] and in the data set with HepG2 [3] were 105 µM and 93.3 µM, respectively. The IC50 at 48 h in data set [2] is 284 µM.
Regarding `CC[C@H](C)[C@@H]1NC(=O)CN2C(=O)c3ccccc3[C@]2(O)CN(Cc2ccccc2)C(=O)[C@H](CC(C)C)NC(=O)[C@@H]2CSCN2C(=O)[C@@H]2CSCN2C1=O` (cyclo(I[Thz][Thz]L[X2])), the values for the IC50 in the data set on HeLa [1] and in the data set on HepG2 [3] were 23.7 µM and 26.9 µM, respectively. Also, the IC50 at 48 h in [2] is greater than 400 µM.
On the same counts, the results for `CC[C@H](C)[C@@H]1NC(=O)[C@H](CC(C)C)NC(=O)[C@@H]2CSCN2C(=O)[C@@H]2CSCN2C(=O)CN2C(=O)c3ccccc3[C@@]2(O)CN(Cc2ccccc2)C1=O` are 12.3 µM, 24.7 µM and 70.9 µM.
Take `COc1cccc2c1C(=O)c1c(O)c3c(c(O)c1C2=O)C[C@@](O)(C(=O)CO)C[C@@H]3O[C@H]1C[C@H](N)[C@H](O)[C@H](C)O1` [DOXORUBICIN]: the IC50 at 48 h in [2] turned out to be 326 µM. For the same compound, in the data set on HepG2 [3], the IC50 was 73.5 µM.
Turning to `CC[C@H](C)[C@@H]1NC(=O)[C@H](CC(C)C)NC(=O)CN2C(=O)c3ccccc3[C@@]2(O)CN(Cc2ccccc2)C(=O)[C@@H]2CSCN2C(=O)[C@@H]2CSCN2C1=O`, the IC50 is 82.2 µM in the data set on HeLa [1] and 49 µM in the data set on HepG2 [3]. Further, in [2], the IC50 at 48 h turned out to be 274 µM.
On the same counts, the results for `CC[C@H](C)[C@@H]1NC(=O)CN2C(=O)c3ccccc3[C@]2(O)CN(Cc2ccccc2)C(=O)[C@H](CC(C)C)NC(=O)[C@@H]2CCCN2C(=O)[C@@H]2CCCN2C1=O` (cyclo(IPPL[X2])) are 32.7 µM, 37.7 µM and greater than 400 µM.
`CC[C@H](C)[C@@H]1NC(=O)[C@H](CC(C)C)NC(=O)[C@@H]2CSCN2C(=O)[C@H]2CSCN2C(=O)CN2C(=O)c3ccccc3[C@@]2(O)CN(Cc2ccccc2)C1=O`: the outcome in the data set with HeLa [4], in the data set on HeLa [5], in the data set with HeLa [7], in the data set with HepG2 [8], in the data set on HeLa [9] and in the data set on HeLa [11] was Active. The result in the data set on HeLa [13], with HeLa [14], in the data set on HepG2 [15], with HeLa [16], in the data set with HeLa [17] and in the data set on HeLa [18] was Active. The Activity entry in the data set on HeLa [6] and in the data set with HeLa [12] was “Tde” in each case. For the same compound, in the data set with HeLa [10], the inhibition entry is “Active”.
Take `CC[C@H](C)[C@@H]1NC(=O)[C@H](CC(C)C)NC(=O)[C@@H]2CCCN2C(=O)CN2C(=O)c3ccccc3[C@]2(O)CN(Cc2ccccc2)C(=O)[C@@H]2CCCN2C1=O` (cyclo(IP[X2]PL)): the IC50 in the data set with HeLa [1] is 28.2 µM; in the data set with HeLa [19], 28.2 µM; in the data set on HepG2 [3], 33.5 µM. For the same compound, the IC50 at 48 h in data set [2] was greater than 400 µM.
With `CC[C@H](C)[C@@H]1NC(=O)[C@H](CC(C)C)NC(=O)[C@@H]2CCCN2C(=O)[C@@H]2CCCN2C(=O)CN2C(=O)c3ccccc3[C@]2(O)CN(Cc2ccccc2)C1=O` (cyclo(I[X2]PPL)), the results for the IC50 with HeLa [1], in the data set on HeLa [19] and in the data set on HepG2 [3] were 36.5 µM, 36.5 µM and 40.3 µM, respectively. Also, the IC50 at 48 h in [2] is greater than 400 µM.
With `CC[C@H](C)[C@@H]1NC(=O)[C@H](CC(C)C)NC(=O)[C@@H]2CSCN2C(=O)CN2C(=O)c3ccccc3[C@]2(O)CN(Cc2ccccc2)C(=O)[C@@H]2CSCN2C1=O`, the IC50 in the data set on HeLa [1] worked out at 69.3 µM; in the data set with HepG2 [3], 27.3 µM. Also, the IC50 at 48 h in [2] was 293 µM.

By IC50 is commonly meant the midpoint of a concentration-inhibition curve.
